Assay results from PubChem BioAssay AID1996.
In brackets after ≈: the same amount, converted by molar mass.

Settings: buffer; pH 7.4; 200.0 µM

| SMILES | solubility kinetic [µg/mL] |
| --- | --- |
| C(#Cc1ccccc1)CN1CCOCC1.Cl | > 35.7 |
| CCN(Cc1ccccc1)C(=O)COC(=O)c1cnc(C)cn1 | 38 (≈ 121 µM) |
| Cc1nccc(-c2sc(-c3cccs3)nc2C)n1 | 2.6 (≈ 9.51 µM) |
| CC(C)(C)c1ccc(OC(=O)N2CCOCC2)cc1 | 31.9 (≈ 121 µM) |
| Cc1cc(/C=C2/C(=O)NC(=O)N(C)C2=O)c(C)n1-c1ccccc1 | 1.1 (≈ 3.4 µM) |
| CC(C)c1ccc(NC(=S)NC2CC3C=CC2C3)cc1 (stereo unspecified) | 1.4 (≈ 4.89 µM) |
| O=C(CCCC(=O)c1ccccc1)NCc1ccccc1 | > 42.2 |
| O=c1[nH]c(/C=C/c2ccccc2)c([N+](=O)[O-])c(=O)[nH]1 | > 38.9 |
| CCCCCCC(=O)c1c([O-])n(-c2ccc(OC)cc2)c(=O)[nH]c1=O.C[NH+](C)C | 44.5 |
| Cc1cccc(Nc2nc(N)nc(CCl)n2)c1 | > 37.5 |
| CCOC(=O)c1[nH]cnc1C(=O)Nc1ccc(C)cc1 | 4.9 (≈ 17.9 µM) |
| COc1cccc(N2CCN(C(=O)c3cc(C)oc3C)CC2)c1 | > 47.2 |
| CCc1ccccc1NC(=O)CC1SCCNC1=O (stereo unspecified) | > 41.8 |
| Nc1nc2ccccc2n1CCOc1ccc(Br)cc1 | 27.2 (≈ 81.9 µM) |
| CC(C)NC(=O)c1ccc(-n2c(=S)[nH]c3ccccc3c2=O)cc1 | 3.9 (≈ 11.5 µM) |
| Cc1ccc(-n2c(C)cc(=O)cc2C)cc1[N+](=O)[O-] | > 38.7 |
| CC(C)Oc1ccc(/C=C/C(=O)NCC2COc3ccccc3O2)cc1 (stereo unspecified) | 2.8 (≈ 7.92 µM) |
| O=C(CN1CCCCCC1)Nc1c(Cl)cc(Cl)cc1Cl | 42.1 (≈ 125 µM) |
| O=C(COC(=O)c1cccnc1Cl)NCc1cccs1 | 44.1 (≈ 142 µM) |
| CCN(C(=O)C1CCCO1)c1ccccc1 (stereo unspecified) | 25.2 (≈ 115 µM) |
| Cc1cccc(-c2nc3sc(C)cc3c(=O)o2)c1 | < 0.6 |
| O=C(Nc1ccccn1)c1ccc2c(=O)n3c(nc2c1)CCCCC3 | > 50.2 |

| SMILES | solubility kinetic [µg/mL] |
| --- | --- |
| CC(=O)c1c(C)[nH]c(C(=O)OCc2csc(CC(=O)Nc3ccccc3C)n2)c1C | 4.2 (≈ 9.87 µM) |
| O=C(CSc1ccccc1)NC1CCCCCC1 | > 39.5 |
| O=C(Cc1csc(NC(=O)c2ccc(F)cc2)n1)NO | > 44.3 |
| CCC(=O)NC(Cc1ccccc1)c1nc2ccccc2[nH]1 (stereo unspecified) | > 44 |
| CCc1cccc(CC)c1NC(=S)Nc1cccc(Cl)c1Cl | 1.4 (≈ 3.96 µM) |
| Cc1ccccc1Oc1ccccc1N | 3.9 (≈ 19.6 µM) |
| N#Cc1ccc(CSc2ccccn2)c(Cl)c1 | 3.4 (≈ 13 µM) |
| COc1nc(/C=C/N(C)C)c([N+](=O)[O-])c(OC)n1 | 17.2 (≈ 67.7 µM) |
| O=C(CN1C(=O)C2CCCCC2C1=O)Nc1ccccc1C(=O)O (stereo unspecified) | > 49.6 |
| CN(C)C(=S)c1ccc(N(C)C)cc1 | 28.2 (≈ 135 µM) |
| COc1ccccc1C(=O)NC1CC(C)(C)NC(C)(C)C1 | > 43.6 |
| O=C(NC1CCCC1)C1CCN(C(=O)c2ccc(Cl)cc2)CC1 | > 50.2 |
| CN(C)/C=N/c1sc2c(c1C(N)=O)CCCC2 | 19.4 (≈ 77.2 µM) |
| Cc1cnc(C(=O)N2CCN(S(=O)(=O)c3cccc(Br)c3)CC2)cn1 | > 63.8 |
| Cc1c(C(=O)Nc2ccccn2)sc2nc3n(c(=O)c12)CCC3 | 32.9 (≈ 101 µM) |
| Cc1ccc(NC(=S)N2CCCCCC2)c(C)c1 | > 39.4 |
| Cc1nnc(SCC(=O)NC2CC2)n1CC1CCCO1 (stereo unspecified) | > 44.5 |
| COc1ccc(OC)c(NC(=O)CC2Oc3ccccc3NC2=O)c1 (stereo unspecified) | 6.4 (≈ 18.7 µM) |
| COc1ccc(N2CCN(C(=O)NC(=O)c3ccc(Cl)cc3)CC2)cc1 | 3.1 (≈ 8.29 µM) |
| COc1cccc(NC(=O)c2ccc3c(c2)OCCO3)c1 | > 42.8 |
| COC(=O)c1cc(C(=O)OCC(=O)N2CCCCC2)cc([N+](=O)[O-])c1 | > 52.5 |
| Nc1cc(Oc2ccc(Cl)cc2Cl)nc(N)n1 | 39.5 (≈ 146 µM) |

| SMILES | solubility kinetic [µg/mL] |
| --- | --- |
| CN(C(=O)COC(=O)c1ccc(Cl)cc1N)C1CCCCC1 | 0.7 (≈ 2.16 µM) |
| O=C(COC(=O)COc1ccccc1)Nc1ncc(Cl)cc1Cl | 47 (≈ 132 µM) |
| Cc1cccc(N2CCN(Cc3nc(C4CC4)no3)CC2)n1 | 37.8 (≈ 126 µM) |
| CN(C(=O)c1ccc(Cl)cc1)C1CCS(=O)(=O)C1 (stereo unspecified) | 41.2 (≈ 143 µM) |
| CCOC(=O)N1CCN(S(=O)(=O)c2ccc([N+](=O)[O-])cc2)CC1 | 36.9 (≈ 107 µM) |
| Cc1cc(SCc2ccccc2C)nc(=O)[nH]1 | 30.7 (≈ 125 µM) |
| CN1CCN(C(=S)c2cn(Cc3cccc(F)c3)c3ccccc23)CC1 | 28 (≈ 76.2 µM) |
| Cc1nc(N2CCN(c3ccc(Cl)cc3)CC2)[nH]c(=O)c1C | 1.6 (≈ 5.02 µM) |
| O=C(NC1CCCC1)C1CCCN(C(=O)Nc2ccccc2)C1 (stereo unspecified) | 43.9 (≈ 139 µM) |
| COc1cccc(S(=O)(=O)N2CCN(C(=O)c3ccco3)CC2)c1 | 51.3 (≈ 146 µM) |
| Cc1oncc1C(=O)Nc1cccc2ccccc12 | 34 (≈ 135 µM) |
| CCc1nnc(SC(C)C(=O)Nc2nccs2)n1C (stereo unspecified) | > 44.6 |
| O=C1Nc2ccc(Cl)cc2C12OCCCO2 | 3.2 (≈ 13.4 µM) |
| Cc1cc(C)nc(NC(=S)Nc2ccc(F)cc2F)c1 | 1.7 (≈ 5.8 µM) |
| O=C(NC(=S)Nc1ccc2c(c1)OCCO2)c1ccco1 | 40.3 (≈ 132 µM) |
| Cc1cccc(NC(=S)NCc2ccccc2)c1C | 35.1 (≈ 130 µM) |
| COC(=O)c1ccc(Cn2cnc3cnccc32)cc1 | 29.9 (≈ 112 µM) |
| O=C1CN(C(=O)COC(=O)[C@@H]2CCCN2S(=O)(=O)c2ccc(Cl)cc2)c2ccccc2N1 | 59.1 (≈ 124 µM) |
| O=[N+]([O-])c1ccc(N2CCN(c3ccccc3F)CC2)nc1 | 0.7 (≈ 2.32 µM) |
| O=C(COc1ccccc1F)Nc1ccc2c(c1)OCCO2 | 14.1 (≈ 46.5 µM) |
| C=CCNC(=O)c1cc(-c2ccc3c(c2)OCO3)on1 | 1.5 (≈ 5.51 µM) |
| O=C(NCCO)N1c2ccccc2Sc2ccccc21 | > 43 |

| SMILES | solubility kinetic [µg/mL] |
| --- | --- |
| COC(=O)C1=C(N)OC2=C(C(=O)CC(C)(C)C2)C1c1ccccc1OC (stereo unspecified) | > 53.6 |
| CC(=O)C1=C(O)C(=O)N(c2ccccn2)C1c1cccc(F)c1 (stereo unspecified) | > 46.8 |
| Cc1cc(C(=O)Cn2c(CO)nc3ccccc32)c(C)n1C | > 44.6 |
| CN(C)c1ccc(NC(=O)CCN2C(=O)c3cccc([N+](=O)[O-])c3C2=O)cc1 | 42.4 (≈ 111 µM) |
| COc1ccc(CC(=O)OCC(=O)NC2CCCC(C)C2C)cc1 (stereo unspecified) | > 50 |
| CC1CCCN1CC#CC(O)(c1ccccc1)c1ccccc1.Cl (stereo unspecified) | 46.9 |
| O=S1(=O)N=C(N2CCCC2)c2ccccc21 | 31.4 (≈ 133 µM) |
| COc1ccc(C(=O)N2CCN(c3ncccn3)CC2)cc1[N+](=O)[O-] | 50.5 (≈ 147 µM) |
| O=C(/C=C/c1ccc(Br)o1)Nc1nccs1 | 4.3 (≈ 14.4 µM) |
| COc1ccc(Oc2ncccc2[N+](=O)[O-])cc1 | > 36.9 |
| Cc1cccc(Nc2ccc([N+](=O)[O-])cn2)c1 | 13.4 (≈ 58.5 µM) |
| CC(NC(=O)COC(=O)CCC(=O)c1ccc(F)cc1)c1ccccc1 (stereo unspecified) | > 53.6 |
| CCCC1(CCC)NC(=O)N(CC(=O)Nc2ccc(Cl)c(S(=O)(=O)N3CCOCC3)c2)C1=O | 73.2 (≈ 146 µM) |
| Cl.N=C(N)SCc1ccc(O)c([N+](=O)[O-])c1 | > 39.6 |
| COC(=O)c1ccc(S(=O)(=O)N(CCO)Cc2ccccc2)n1C | 47.6 (≈ 135 µM) |
| Cc1cc(C)c(C)c(S(=O)(=O)Nc2ccccc2N2CCOCC2)c1C | 1.7 (≈ 4.54 µM) |
| Cc1ccc(C(=O)OCC(=O)NCCc2ccccc2)cc1C | 11.3 (≈ 36.3 µM) |
| COc1ccc(/C=C2\N=C(C)OC2=O)cc1OC | 36.9 (≈ 149 µM) |
| CC(NC(=O)N1CCOCC1)c1ccccc1 (stereo unspecified) | > 35.1 |
| COc1ccc(S(=O)(=O)N(C)CC(=O)N2CCCC2)cc1 | > 46.9 |
